Tests used:
[1] = system: H929 multiple myeloma tumour line; test: In vitro cytotoxicity, Microculture Tetrazolium Assay; format: cell-based; conditions: Homo sapiens, NCI-H929, 48 h, H929 cells, 48 hours exposure, MTT; read-out: IC50 (μM) MTT H929
Method: The cytotoxicity studies were carried out on the H929 multiple myeloma tumour line.
The cells are distributed onto microplates and exposed to the test compounds for 48 hours.

Mcl-1 protein = Mcl-1 protein (UniProtKB primary accession number: Q07820) (Homo sapiens, UniProt Q07820); test: Inhibition of Mcl-1 by fluorescence polarisation, Method 1; format: binding; conditions: fluorescence polarisation; Method 1, or Method 2; read-out: IC50 (M) Mcl-1 FP
Sequence of Mcl-1 protein (Q07820 whole entry): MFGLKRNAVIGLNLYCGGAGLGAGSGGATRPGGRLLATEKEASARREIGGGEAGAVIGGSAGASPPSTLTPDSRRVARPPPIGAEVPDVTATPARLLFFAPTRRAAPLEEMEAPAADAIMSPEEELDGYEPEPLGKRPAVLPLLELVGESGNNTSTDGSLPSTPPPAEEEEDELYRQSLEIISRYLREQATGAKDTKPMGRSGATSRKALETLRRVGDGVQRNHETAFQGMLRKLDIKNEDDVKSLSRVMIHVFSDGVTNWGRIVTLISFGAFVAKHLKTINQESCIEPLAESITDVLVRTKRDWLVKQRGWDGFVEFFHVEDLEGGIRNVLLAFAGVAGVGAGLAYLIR
How it was run: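 An 11-point DMSO dilution of compound is mixed with buffer (10 mM HEPES, 150 mM NaCl, 0.05% Tween 20, pH 7.4) carrying 1 nM fluorescein-labelled ligand and 5 nM Mcl-1, final concentrations. Displacement is monitored by fluorescence polarisation.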

| Structure (SMILES) | IC50 (Mcl-1 protein) [M] | IC50 [1] [µM] |
| --- | --- | --- |
| COc1nccc(COc2ccccc2CC(Oc2ncnc3sc(-c4ccc(F)c(O)c4)c(-c4ccc(OCCN5CCN(C)CC5)c(Cl)c4C)c23)C(=O)O)n1 [Example 595, (2R)-2-{[(5Sa)-5-{3-chloro-2-methyl-4-[2-(4-methylpiperazin-1-yl)ethoxy]phenyl}-6-(4-fluoro-3-hydroxyphenyl)thieno[2,3-d]pyrimidin-4-yl]oxy}-3-{2-[(2-methoxypyrimidin-4-yl)methoxy]phenyl}propanoic acid] | 6.2e-09 | 0.114 |
| COc1nccc(COc2ccccc2CC(Oc2ncnc3sc(-c4ccc(F)c(OCCN5CCOCC5)c4)c(-c4ccc(OCCN5CCN(C)CC5)c(Cl)c4C)c23)C(=O)O)n1 [Example 596, (2R)-2-[((5Sa)-5-{3-chloro-2-methyl-4-[2-(4-methylpiperazin-1-yl)ethoxy]phenyl}-6-{4-fluoro-3-[2-(morpholin-4-yl)ethoxy]phenyl}thieno[2,3-d]pyrimidin-4-yl)oxy]-3-{2-[(2-methoxypyrimidin-4-yl)methoxy]phenyl}propanoic acid] | 2.7e-09 | 0.12 |
| COc1nccc(COc2ccccc2CC(Oc2ncnc3sc(-c4ccc(F)c(OCCO)c4)c(-c4ccc(OCCN5CCN(C)CC5)c(Cl)c4C)c23)C(=O)O)n1 [Example 597, (2R)-2-[((5Sa)-5-{3-chloro-2-methyl-4-[2-(4-methylpiperazin-1-yl)ethoxy]phenyl}-6-[4-fluoro-3-(2-hydroxyethoxy)phenyl]thieno[2,3-d]pyrimidin-4-yl)oxy]-3-{2-[(2-methoxypyrimidin-4-yl)methoxy]phenyl}propanoic acid] | 6.2e-09 | 0.449 |
| COCCOc1cc(-c2sc3ncnc(OC(Cc4ccccc4OCc4ccnc(OC)n4)C(=O)O)c3c2-c2ccc(OCCN3CCN(C)CC3)c(Cl)c2C)ccc1F [Example 598, (2R)-2-[((5Sa)-5-{3-chloro-2-methyl-4-[2-(4-methylpiperazin-1-yl)ethoxy]phenyl}-6-[4-fluoro-3-(2-methoxyethoxy)phenyl]thieno[2,3-d]pyrimidin-4-yl)oxy]-3-{2-[(2-methoxypyrimidin-4-yl)methoxy]phenyl}propanoic acid] | 7.8e-09 | 0.097 |
| CCCCn1nccc1COc1ccccc1CC(Oc1ncnc2sc(-c3ccc(OCC)cc3)c(-c3ccc(OCCN4CCN(C)CC4)c(Cl)c3C)c12)C(=O)O [Example 604, (2R)-3-{2-[(1-butyl-1H-pyrazol-5-yl)methoxy]phenyl}-2-{[(5Sa)-5-{3-chloro-2-methyl-4-[2-(4-methylpiperazin-1-yl)ethoxy]phenyl}-6-(4-ethoxyphenyl)thieno[2,3-d]pyrimidin-4-yl]oxy}propanoic acid] | 5.7e-09 | 0.064 |
| CCCCn1nccc1COc1ccccc1CC(Oc1ncnc2sc(-c3ccc(-c4ccc(Cl)nc4)nc3)c(-c3ccc(OCCN4CCN(C)CC4)c(Cl)c3C)c12)C(=O)O [Example 605, (2R)-3-{2-[(1-butyl-1H-pyrazol-5-yl)methoxy]phenyl}-2-{[6-(6′-chloro-2,3′-bipyridin-5-yl)-(5Sa)-5-{3-chloro-2-methyl-4-[2-(4-methylpiperazin-1-yl)ethoxy]phenyl}thieno[2,3-d]pyrimidin-4-yl]oxy}propanoic acid] | 8.2e-09 | 0.254 |
| C#Cc1sc2ncnc(OC(Cc3ccccc3OCc3ccnn3CCCC)C(=O)O)c2c1-c1ccc(OCCN2CCN(C)CC2)c(Cl)c1C [Example 611, (2R)-3-{2-[(1-butyl-1H-pyrazol-5-yl)methoxy]phenyl}-2-[((5Sa)-5-{3-chloro-2-methyl-4-[2-(4-methylpiperazin-1-yl)ethoxy]phenyl}-6-ethynylthieno[2,3-d]pyrimidin-4-yl)oxy]propanoic acid] | 3.9e-09 | 0.23 |
| CCC#Cc1sc2ncnc(OC(Cc3ccccc3OCc3ccnn3CCCC)C(=O)O)c2c1-c1ccc(OCCN2CCN(C)CC2)c(Cl)c1C [Example 612, (2R)-3-{2-[(1-butyl-1H-pyrazol-5-yl)methoxy]phenyl}-2-{[6-(but-1-yn-1-yl)-(5Sa)-5-{3-chloro-2-methyl-4-[2-(4-methylpiperazin-1-yl)ethoxy]phenyl}thieno[2,3-d]pyrimidin-4-yl]oxy}propanoic acid] | 3.5e-09 | 0.02 |
| CCCCn1nccc1COc1ccccc1CC(Oc1ncnc2sc(C#CCOC)c(-c3ccc(OCCN4CCN(C)CC4)c(Cl)c3C)c12)C(=O)O [Example 613, (2R)-3-{2-[(1-butyl-1H-pyrazol-5-yl)methoxy]phenyl}-2-{[(5Sa)-5-{3-chloro-2-methyl-4-[2-(4-methylpiperazin-1-yl)ethoxy]phenyl}-6-(3-methoxyprop-1-yn-1-yl)thieno[2,3-d]pyrimidin-4-yl]oxy}propanoic acid] | 3.5e-09 | 0.158 |
| CCCCn1nccc1COc1ccccc1CC(Oc1ncnc2sc(C(F)(F)F)c(-c3ccc(OCCN4CCN(C)CC4)c(Cl)c3C)c12)C(=O)O [Example 615, (2R)-3-{2-[(1-butyl-1H-pyrazol-5-yl)methoxy]phenyl}-2-{[(5Sa)-5-{3-chloro-2-methyl-4-[2-(4-methylpiperazin-1-yl)ethoxy]phenyl}-6-(trifluoromethyl)thieno[2,3-d]pyrimidin-4-yl]oxy}propanoic acid] | 8e-10 | 0.292 |

The next lines start with results.

| IC50 (Mcl-1 protein) [M] | Structure (SMILES) | IC50 [1] [µM] |
| --- | --- | --- |
| 4.1e-09 | CCCCn1nccc1COc1ccccc1CC(Oc1ncnc2sc(-c3ccc(C#N)cc3)c(-c3ccc(OCCN4CCN(C)CC4)c(Cl)c3C)c12)C(=O)O [Example 600, (2R)-3-{2-[(1-butyl-1H-pyrazol-5-yl)methoxy]phenyl}-2-{[(5Sa)-5-{3-chloro-2-methyl-4-[2-(4-methylpiperazin-1-yl)ethoxy]phenyl}-6-(4-cyanophenyl)thieno[2,3-d]pyrimidin-4-yl]oxy}propanoic acid] | 0.031 |
| 1.2e-08 | CCCCn1nccc1COc1ccccc1CC(Oc1ncnc2sc(-c3ccc(CC)cc3)c(-c3ccc(OCCN4CCN(C)CC4)c(Cl)c3C)c12)C(=O)O [Example 601, (2R)-3-{2-[(1-butyl-1H-pyrazol-5-yl)methoxy]phenyl}-2-{[(5Sa)-5-{3-chloro-2-methyl-4-[2-(4-methylpiperazin-1-yl)ethoxy]phenyl}-6-(4-ethylphenyl)thieno[2,3-d]pyrimidin-4-yl]oxy}propanoic acid] | 0.133 |
| 3.7e-09 | CCCCn1nccc1COc1ccccc1CC(Oc1ncnc2sc(-c3ccc(O)cc3)c(-c3ccc(OCCN4CCN(C)CC4)c(Cl)c3C)c12)C(=O)O [Example 602, (2R)-3-{2-[(1-butyl-1H-pyrazol-5-yl)methoxy]phenyl}-2-{[(5Sa)-5-{3-chloro-2-methyl-4-[2-(4-methylpiperazin-1-yl)ethoxy]phenyl}-6-(4-hydroxyphenyl)thieno[2,3-d]pyrimidin-4-yl]oxy}propanoic acid] | 0.156 |
| 5e-09 | CCCCn1nccc1COc1ccccc1CC(Oc1ncnc2sc(-c3ccc(OC)cc3)c(-c3ccc(OCCN4CCN(C)CC4)c(Cl)c3C)c12)C(=O)O [Example 603, (2R)-3-{2-[(1-butyl-1H-pyrazol-5-yl)methoxy]phenyl}-2-{[(5Sa)-5-{3-chloro-2-methyl-4-[2-(4-methylpiperazin-1-yl)ethoxy]phenyl}-6-(4-methoxyphenyl)thieno[2,3-d]pyrimidin-4-yl]oxy}propanoic acid] | 0.036 |
| 4e-09 | CCCCn1nccc1COc1ccccc1CC(Oc1ncnc2sc(-c3ccc(Cl)nc3)c(-c3ccc(OCCN4CCN(C)CC4)c(Cl)c3C)c12)C(=O)O [Example 606, (2R)-3-{2-[(1-butyl-1H-pyrazol-5-yl)methoxy]phenyl}-2-{[(5Sa)-5-{3-chloro-2-methyl-4-[2-(4-methylpiperazin-1-yl)ethoxy]phenyl}-6-(6-chloropyridin-3-yl)thieno[2,3-d]pyrimidin-4-yl]oxy}propanoic acid] | 0.064 |
| 3.5e-09 | CCCCn1nccc1COc1ccccc1CC(Oc1ncnc2sc(-c3ccc(F)nc3)c(-c3ccc(OCCN4CCN(C)CC4)c(Cl)c3C)c12)C(=O)O [Example 607, (2R)-3-{2-[(1-butyl-1H-pyrazol-5-yl)methoxy]phenyl}-2-{[(5Sa)-5-{3-chloro-2-methyl-4-[2-(4-methylpiperazin-1-yl)ethoxy]phenyl}-6-(6-fluoropyridin-3-yl)thieno[2,3-d]pyrimidin-4-yl]oxy}propanoic acid] | 0.04 |
| 4.2e-09 | CCCCn1nccc1COc1ccccc1CC(Oc1ncnc2sc(-c3ccc(OC)nc3)c(-c3ccc(OCCN4CCN(C)CC4)c(Cl)c3C)c12)C(=O)O [Example 608, (2R)-3-{2-[(1-butyl-1H-pyrazol-5-yl)methoxy]phenyl}-2-{[(5Sa)-5-{3-chloro-2-methyl-4-[2-(4-methylpiperazin-1-yl)ethoxy]phenyl}-6-(6-methoxypyridin-3-yl)thieno[2,3-d]pyrimidin-4-yl]oxy}propanoic acid] | 0.021 |
| 3.5e-09 | CCCCn1nccc1COc1ccccc1CC(Oc1ncnc2sc(-c3cccnc3)c(-c3ccc(OCCN4CCN(C)CC4)c(Cl)c3C)c12)C(=O)O [Example 609, (2R)-3-{2-[(1-butyl-1H-pyrazol-5-yl)methoxy]phenyl}-2-{[(5Sa)-5-{3-chloro-2-methyl-4-[2-(4-methylpiperazin-1-yl)ethoxy]phenyl}-6-(pyridin-3-yl)thieno[2,3-d]pyrimidin-4-yl]oxy}propanoic acid] | 0.063 |
| 3.5e-09 | CCCCn1nccc1COc1ccccc1CC(Oc1ncnc2sc(-c3ccn(C)n3)c(-c3ccc(OCCN4CCN(C)CC4)c(Cl)c3C)c12)C(=O)O [Example 610, (2R)-3-{2-[(1-butyl-1H-pyrazol-5-yl)methoxy]phenyl}-2-{[(5Sa)-5-{3-chloro-2-methyl-4-[2-(4-methylpiperazin-1-yl)ethoxy]phenyl}-6-(1-methyl-1H-pyrazol-3-yl)thieno[2,3-d]pyrimidin-4-yl]oxy}propanoic acid] | 0.091 |

— patent publication US9670227B2, “Thienopyrimidine derivatives, a process for their preparation and pharmaceutical compositions containing them” (LES LABORATOIRES SERVIER, priority 2013, dated 2017)
